Measurements as given in US12491185B2, “Inhibitors of mPTP” (NRG Therapeutics Ltd, priority 2023, dated 2025).

System: mPTP
Test: mPTP activity (Ca2+ retention) assay in isolated rat liver mitochondria
Assay type: biochemical
Conditions: examples tested by different contract research organisations, believed comparable
Description: Pharmacological inhibition or modulation of the mPTP can be measured in well characterised ‘Ca^2+ retention’ assays performed in isolated mitochondria. In vitro, isolated mitochondria rapidly sequester exogenous Ca^2+ until the intramitochondrial Ca^2+ concentration reaches the threshold for mPTP activation. Once the pore is activated, mitochondrial integrity is compromised and the stored Ca^2+ is released. The distribution of Ca^2+ between extra- and intra-mitochondrial compartments can be measured in real time with the use of membrane-impermeant Ca^2+ sensitive fluorescent dyes. Depending on the configuration of the assay, inhibition or modulation of the mPTP either delays the opening of the pore or increases the concentration of Ca^2+ required to induce mPTP opening.
MPTP activity was measured in mitochondria freshly isolated from female Sprague Dawley (250 to 300 gram) rat livers using the following method. Cervical dislocation was performed on the rat. The liver was then perfused in-situ with −40 ml cold Dulbecco's Phosphate Buffered Saline (DPBS) prior to dissection and transferred into 30 ml Isolation Buffer (250 mM Sucrose, 10 mM KCl, 1 mM EGTA, 1 mM EDTA, 25 mM HEPES, adjusted to pH 7.5 with 1M NaOH). Each lobe of the liver was then removed from the buffer, minced using tweezers and a scalpel into −5 mm pieces then transferred into a 50 ml Potterton dounce homogenization tube on ice containing 30 ml ice-cold centrifugation buffer (300 mM Trehalose, 25 mM HEPES, 1 mM EGTA, 1 mM EDTA, 10 mM KCl, adjusted to pH 7.5 with 1M NaOH and supplemented with 0.1% bovine serum albumin (BSA) and complete protease inhibitor cocktail (one tablet of inhibitor per 50 mls of buffer). Homogenisation was carried out using a teflon pestle at 1800 rpm. The slurry was centrifuged at 800 g for 10 min at 4° C., then the supernatant centrifuged at 10,000 g for 10 min. The pellet was washed once with FLIPR assay buffer (75 mM Mannitol, 25 mM Sucrose, 5 mM Potassium Phosphate Monobasic, 20 mM Tris base, 100 mM KCl, 0.1% BSA adjusted to pH 7.4 with 5M HCl) centrifuged again, then resuspended in FLIPR assay buffer to a concentration of 8.8 mg/ml protein.
Tested compounds (10 mM stock in DMSO) were serially diluted in DMSO in half log steps to generate 10 test concentrations (final concentrations in assay 30 μM to 1 nM). An intermediate dilution of 5 μl DMSO samples into 247 μl FLIPR assay buffer was carried out prior to transfer of 5 μl into duplicate wells of a 384 well polypropylene assay plate. Control wells were 0.5% (v/v) DMSO and 5 μM cyclosporin A.
A stock mitochondria/Fluo5N assay solution was prepared in 5.6 ml FLIPR assay buffer (at RT) supplemented with succinate disodium salt (10 mM), rotenone (1 μM), Fluo5N pentapotassium salt (2 μM) and 1 ml mitochondria suspension, then transferred (15 μl) into the assay plate containing test compounds and incubated for 10 min at RT. Assay plates were processed for fluorescence detection on either a FLIPR Tetra (Molecular Devices) or CLARIOstar (BMG) plate reader. For kinetic fluorescence detection on the FLIPR, dye fluorescence was measured every 3 sec for a total of 10 min. After 12 sec, a 2.5 μl bolus of CaCl2 (75 μM) was added from a source plate containing 675 μM CaCl2 in FLIPR assay buffer. Alternatively, the 2.5 μl addition of CaCl2 was performed using a Viaflow 384, plates were incubated at RT for 10 min, and dye fluorescence measured after 10 min on the CLARIOstar plate reader. pIC50 values for tested compounds were calculated using the fluorescence value collected at the 10 min timepoint on either plate reader, with % inhibition calculated using the DMSO control and cyclosporin A values as 0 and 100% respectively.

Row | mPTP Rat liver pIC50 | SMILES
1 | 5.84 | Cn1nc(C(=O)NCC2(Cc3ccc(F)cc3F)CCCCC2)[nH]c1=O [Example 73, N-((1-(2,4-Difluorobenzyl)cyclohexyl)methyl)-1-methyl-5-oxo-4,5-dihydro-1H-1,2,4-triazole-3-carboxamide]
2 | 5.98 | CC[C@@H](Cc1ccccc1)[C@H](C)NC(=O)c1nn(C)c(=O)[nH]1 [Example 74, N-((2S,3S)-3-benzylpentan-2-yl)-1-methyl-5-oxo-4,5-dihydro-1H-1,2,4-triazole-3-carboxamide]
3 | 5.77 | COc1cccc(CC2(CNC(=O)c3nn(C)c(=O)[nH]3)CCC2)c1 [Example 75, N-((1-(3-Methoxybenzyl)cyclobutyl)methyl)-1-methyl-5-oxo-4,5-dihydro-1H-1,2,4-triazole-3-carboxamide]
4 | 5.65 | Cn1nc(C(=O)NCC2(Cc3ccccc3C(F)F)CCC2)[nH]c1=O [Example 76, N-((1-(2-(Difluoromethyl)benzyl)cyclobutyl)methyl)-1-methyl-5-oxo-4,5-dihydro-1H-1,2,4-triazole-3-carboxamide]
5 | 4.78 | Cn1nc(C(=O)NCC2(Cc3cccc(C4CC4)c3)CCC2)[nH]c1=O [Example 77, N-((1-(3-Cyclopropylbenzyl)cyclobutyl)methyl)-1-methyl-5-oxo-4,5-dihydro-1H-1,2,4-triazole-3-carboxamide]
6 | 5.27 | CCc1ccccc1CC1(CNC(=O)c2nn(C)c(=O)[nH]2)CCC1 [Example 82, N-((1-(2-Ethylbenzyl)cyclobutyl)methyl)-1-methyl-5-oxo-4,5-dihydro-1H-1,2,4-triazole-3-carboxamide]
7 | 5.83 | Cn1nc(C(=O)NCC2(Cc3cccc(Cl)c3F)CCC2)[nH]c1=O [Example 85, N-((1-(3-Chloro-2-fluorobenzyl)cyclobutyl)methyl)-1-methyl-5-oxo-4,5-dihydro-1H-1,2,4-triazole-3-carboxamide]
8 | 5.86 | Cc1cc(F)ccc1CC1(CNC(=O)c2nn(C)c(=O)[nH]2)CCC1 [Example 86, N-((1-(4-Fluoro-2-methylbenzyl)cyclobutyl)methyl)-1-methyl-5-oxo-4,5-dihydro-1H-1,2,4-triazole-3-carboxamide]
9 | 5.57 | Cn1nc(C(=O)NCC2(Cc3ccc(F)cc3C(F)(F)F)CCC2)[nH]c1=O [Example 87, N-((1-(4-Fluoro-2-(trifluoromethyl)benzyl)cyclobutyl)methyl)-1-methyl-5-oxo-4,5-dihydro-1H-1,2,4-triazole-3-carboxamide]
10 | 5.28 | O=C(NCC1(Cc2ccccc2)CCC1)c1noc(=O)[nH]1 [Example 88, N-((1-Benzylcyclobutyl)methyl)-5-oxo-4,5-dihydro-1,2,4-oxadiazole-3-carboxamide]
11 | 6.05 | Cc1cccc(CC2(CNC(=O)c3nn(C)c(=O)[nH]3)CCC2)c1 [Example 89, 1-Methyl-N-((1-(3-methylbenzyl)cyclobutyl)methyl)-5-oxo-4,5-dihydro-1H-1,2,4-triazole-3-carboxamide]
12 | 5.61 | Cn1nc(C(=O)NCC2(Cc3ccc(Cl)cc3F)CCC2)[nH]c1=O [Example 90, N-((1-(4-Chloro-2-fluorobenzyl)cyclobutyl)methyl)-1-methyl-5-oxo-4,5-dihydro-1H-1,2,4-triazole-3-carboxamide]
13 | 5.75 | Cc1cc(Cl)ccc1CC1(CNC(=O)c2nn(C)c(=O)[nH]2)CCC1 [Example 91, N-((1-(4-Chloro-2-methylbenzyl)cyclobutyl)methyl)-1-methyl-5-oxo-4,5-dihydro-1H-1,2,4-triazole-3-carboxamide]
14 | 6.58 | Cn1nc(C(=O)NCC(Cc2ccc(F)cc2F)C2CC2)[nH]c1=O (stereo not drawn) [Example 93, N-(2-Cyclopropyl-3-(2,4-difluorophenyl)propyl)-1-methyl-5-oxo-4,5-dihydro-1H-1,2,4-triazole-3-carboxamide]
15 | 5.77 | Cc1cccc(CC2(CNC(=O)c3nn(C)c(=O)[nH]3)CCC2)c1F [Example 94, N-((1-(2-Fluoro-3-methylbenzyl)cyclobutyl)methyl)-1-methyl-5-oxo-4,5-dihydro-1H-1,2,4-triazole-3-carboxamide]
16 | 5.66 | Cn1nc(C(=O)NC[C@@H](Cc2ccc(F)cc2F)C2CC2)[nH]c1=O [Example 97, (S)—N-(2-cyclopropyl-3-(2,4-difluorophenyl)propyl)-1-methyl-5-oxo-4,5-dihydro-1H-1,2,4-triazole-3-carboxamide]
17 | <4.57 | Cn1nc(C(=O)NCC2(Cc3ccc(F)cc3OC(F)(F)F)CCC2)[nH]c1=O [Example 102, N-((1-(4-fluoro-2-(trifluoromethoxy)benzyl)cyclobutyl)methyl)-1-methyl-5-oxo-4,5-dihydro-1H-1,2,4-triazole-3-carboxamide]
18 | <4.57 | Cn1nc(C(=O)NCC(Cc2ccc(F)cc2F)C2CCCC2)[nH]c1=O (stereo not drawn) [Example 103, N-(2-cyclopentyl-3-(2,4-difluorophenyl)propyl)-1-methyl-5-oxo-4,5-dihydro-1H-1,2,4-triazole-3-carboxamide]
19 | <4.57 | Cn1nc(C(=O)NCC2(Cc3ccc(C(F)(F)F)cc3F)CCC2)[nH]c1=O [Example 104, N-((1-(2-fluoro-4-(trifluoromethyl)benzyl)cyclobutyl)methyl)-1-methyl-5-oxo-4,5-dihydro-1H-1,2,4-triazole-3-carboxamide]
20 | <4.57 | O=C(NCC1(Cc2ccc(F)cc2F)CCC1)c1nnc(C(F)(F)F)[nH]1 [Example 105, N-((1-(2,4-difluorobenzyl)cyclobutyl)methyl)-5-(trifluoromethyl)-4H-1,2,4-triazole-3-carboxamide]
21 | <4.57 | CSc1ccc(CC2(CNC(=O)c3nn(C)c(=O)[nH]3)CCC2)cc1 [Example 106, 1-methyl-N-((1-(4-(methylthio)benzyl)cyclobutyl)methyl)-5-oxo-4,5-dihydro-1H-1,2,4-triazole-3-carboxamide]
22 | <4.57 | Cn1nc(C(=O)NCC2(Cc3ccc(F)cc3F)CCC2)n(C)c1=O [Example 107, N-((1-(2,4-difluorobenzyl)cyclobutyl)methyl)-1,4-dimethyl-5-oxo-4,5-dihydro-1H-1,2,4-triazole-3-carboxamide]
23 | <4.57 | Cc1cccc(C)c1CC1(CNC(=O)c2nn(C)c(=O)[nH]2)CCC1 [Example 108, N-((1-(2,6-dimethylbenzyl)cyclobutyl)methyl)-1-methyl-5-oxo-4,5-dihydro-1H-1,2,4-triazole-3-carboxamide]
24 | <4.57 | Cn1nc(C(=O)NCC2(Cc3cccc(C(F)(F)F)c3)CCC2)[nH]c1=O [Example 110, 1-methyl-5-oxo-N-((1-(3-(trifluoromethyl)benzyl)cyclobutyl)methyl)-4,5-dihydro-1H-1,2,4-triazole-3-carboxamide]
25 | <4.57 | CCc1ccc(CC2(CNC(=O)c3nn(C)c(=O)[nH]3)CCC2)cc1 [Example 111, N-((1-(4-ethylbenzyl)cyclobutyl)methyl)-1-methyl-5-oxo-4,5-dihydro-1H-1,2,4-triazole-3-carboxamide]
26 | <4.57 | CCC(CNC(=O)c1nn(C)c(=O)[nH]1)Cc1cscn1 (stereo not drawn) [Example 112, 1-methyl-5-oxo-N-(2-(thiazol-4-ylmethyl)butyl)-4,5-dihydro-1H-1,2,4-triazole-3-carboxamide]
27 | <4.57 | CCC(CNC(=O)c1nn(C)c(=O)[nH]1)Cc1cnn(C)c1 (stereo not drawn) [Example 113, 1-methyl-N-(2-((1-methyl-1H-pyrazol-4-yl)methyl)butyl)-5-oxo-4,5-dihydro-1H-1,2,4-triazole-3-carboxamide]
